Data: patent US20180280321A1, “COMPOSITIONS AND METHODS THAT INHIBIT QUORUM SENSING” (The Office of Innovation Commercialization, priority 2015, published 2018)
Entries after “also recorded” stand apart in the source; their conditions may differ. Where two headings read alike, the source gives them in different places.

Experiments:
[1] = tested on: AgrC-WT isolate AH3469; assay type: cell-based, S. aureus
[2] = biological target: AgrAC-C199S (Staphylococcus aureus, UniProt P0A0I7, C199S); assay type: binding, S. aureus; conditions: SPR, His-tagged AgrAC-C199S on NTA biosensor, 25° C.
[3] = tested on: agr::P3 promoter; assay type: cell-based, S. aureus
[4] = tested on: S. aureus; assay type: cell-based; conditions: at concentrations that inhibit quorum sensing
[5] = tested on: agr::P3 promoter; assay type: cell-based; conditions: agr-I S. epidermidis AH3408, 5 μg/mL OHM, 24 hours
[6] = tested on: MRSA isolate LAC; assay type: in vivo, SKH1 mice; conditions: OHM injected subq near the site of infection four hours post-infection
[7] = biological target: AgrAC and P2-FAM complex (Staphylococcus aureus, UniProt P0A0I7); assay type: binding, S. aureus; conditions: EMSA, 2 μM AgrAC
[8] = tested on: human PMNs; assay type: cell-based; conditions: supernatant from OHM- versus vehicle-treated LAC, 5 μg/mL OHM, two hours
[9] = tested on: S. aureus LAC / LACΔagr in RAW 264.7 macrophages; assay type: cell-based, mouse; conditions: LAC pre-treated with 5 μg/mL OHM, RAW 264.7, MOI 1:1; vs vehicle
[10] = tested on: MRSA isolate LAC; assay type: in vivo; conditions: STZ-treated diabetic C57BL/6 mice, OHM given along with 5×10^7 CFU LAC
[11] = tested on: S. aureus LAC / LACΔagr in human PMNs; assay type: cell-based
[12] = tested on: HEK293 cells; assay: Eukaryotic cytotoxicity, XTT assay; assay type: cell-based, human; conditions: HEK293, 24-hour incubation, at concentrations required for agr-inhibition
Description: (§1) Sigma-Aldrich, St. Louis, Mo.) and phenazine methosulfate (PMS; Sigma-Aldrich, St. Louis, Mo.) were used to perform an XTT assay as previously described (Scuderio et al., 1988, Cancer Res. 48:4827-4833). After 24 hours, spent media was removed and fresh media containing the indicated drug concentrations or vehicle was added to the cells and incubated for an additional 24 hours. […] Cell viability was assessed by the metabolic reduction of tetrazolium measured at OD490. Data are presented as percent viable cells compared to vehicle control.

[13] = tested on: HepG2 cells; assay: Eukaryotic cytotoxicity, XTT assay; assay type: cell-based, human; conditions: hepatocyte cell line (HepG2), 24-hour incubation, at concentrations required for agr-inhibition
Description: as §1

[14] = tested on: A549 cells; assay: Eukaryotic cytotoxicity, XTT assay; assay type: cell-based, human; conditions: A549, 24-hour incubation, at concentrations required for agr-inhibition
Description: as §1

[15] = biological target: AgrAC binding to agr promoter DNA (P2-FAM) (Staphylococcus aureus, UniProt P0A0I7); set-up: species or system S. aureus; conditions: bead-based flow cytometry, biotinylated AgrAC on SA beads, P2-FAM 1.6 μM
[16] = tested on: USA300 isolate LAC; assay type: in vivo, SKH1 mice; conditions: for bacterial burden at the site of infection: LAC infected, single OHM treatment
[17] = tested on: RNAIII, psm α and hla transcription; assay type: cell-based, S. aureus

## O=C1c2cc(O)cc(O)c2C(=O)c2c(O)cc(CO)cc21 [OHM, 1,3,8-trihydroxy-6-(hydroxymethyl)anthracene-9,10-dione]
[1]
  agr-mediated Hla expression (lysis of rabbit RBCs): inhibited Hla expression
[2]
  direct binding to immobilized AgrAC: bound directly
[3]; agr-I, agr-II, agr-III, agr-IV reporter strains, OHM 100 to 0.05 μM
  agr::P3 promoter activation (quorum sensing): inhibited quorum sensing by all four agr types
[3]; among polyhydroxyanthraquinones from Penicillium restrictum
  in vitro agr-I transcription inhibition activity: most potent
[4]
  bacterial growth (OD600): do not impact bacterial growth; also recorded: absence of bactericidal or bacteriostatic effects
[5]
  agr activation (agr::P3 promoter): significantly inhibited
[6]
  abscess formation: limits abscess formation
  ulcer area (dermonecrosis): limits abscess formation and dermonecrosis
[7]
  inhibition of AgrAC binding to agr promoter DNA: dose-dependent inhibition
[8]
  PMN survival in the presence of S. aureus supernatant: significantly increased survival
[9]
  intracellular killing by mouse macrophages: significantly increased intracellular killing
[10]
  abscess formation: limits abscess formation
  ulcer formation (dermonecrosis): limits abscess formation and dermonecrosis
[11]; LAC pre-treated with 5 μg/mL OHM, MOI 1:1, vs vehicle
  intracellular killing by human PMNs: significantly increased intracellular killing
[11]; bacteria pre-treated with vehicle or OHM, human PMNs
  opsonophagocytosis: total number and percent of bacteria phagocytosed: equivalent
[12]
  cell viability (toxicity): non-toxic
[13]
  cell viability (toxicity): non-toxic
[14]
  cell viability (toxicity): non-toxic
[15]
  inhibition of AgrAC binding to agr promoter DNA: dose-dependent inhibition
[16]; day seven post-infection
  bacterial burden at the site of infection: reduced
[16]; day three post-infection
  bacterial burden at the site of infection: reduced
[16]; mouse, in vivo
  differences between OHM and vehicle treated mice (abscesses and ulcers): no differences were observed
  histological analysis of skin sections: abscess formation and ulceration: overall reduction in abscess formation and ulceration
  local Hla expression at the site of infection (western blot): decreased local Hla expression
  local IL-1β in abscess tissue (multiplex): significant reductions
  local IL-6 in abscess tissue (multiplex): significant reductions
  local TNFα in abscess tissue (multiplex): significant reductions
  transcription of il-1β in abscess tissue: reduced transcription
  transcription of il-6 in abscess tissue: reduced transcription
  transcription of nlrp3 in abscess tissue: decreased transcription
  transcription of tnfα in abscess tissue: reduced transcription
[16]; mouse, in vivo, 0.25 mg/kg
  morbidity (assessed by weight loss): significantly inhibited
[16]; mouse, in vivo, sc, 0.25 mg/kg
  abscess formation: significantly inhibited
  ulcer (dermonecrosis) formation: significantly inhibited
[17]
  transcription of RNAIII: decreased transcription
  transcription of alpha-hemolysin (hla): decreased transcription
